From paper PMC8994094 (Molecular Diversity, 2022) come the findings set out here.

Values joined by “and” are separate entries in the source; they are usually repeats but may differ in a detail not shown here. Identical values can stand only once.

The test system of data set [1] is cortex neuron cells and neuroblastoma SH-SY5Y cell line. Description: MTT cytotoxicity test. The data set is classed as cell-based. The settings on record: for cell viability at low concentrations: at 10 and 100 μM; for toxicity at effective concentrations on target enzymes: effective concentrations on AChE and hCAs. (In general: Formazan colour is commonly taken as a measure of viable cells.)

The target in data set [2] is AChE from Electrophorus electricus (Electrophorus electricus, UniProt O42275). Kind of data set: AChE activity/kinetic assay. The class given is biochemical. The settings on record: for AChE Inhibition type: Lineweaver-Burk; for Selectivity index THA/AChE: ratio of KI of tacrine to KI of compound.
The target of data set [3] is hCA I (Homo sapiens, UniProt P00915). Description: hCA I esterase activity/kinetic assay. The data set is classed as biochemical. The settings on record: for hCA I Inhibition type: Lineweaver-Burk; for Selectivity index AAZ/hCA I: ratio of KI of acetazolamide to KI of compound; for Selectivity index hCA II/hCA I: ratio of KI values.
In data set [4] the target is hCA II (Homo sapiens, UniProt P00918). Kind of data set: hCA II esterase activity/kinetic assay. The data set is classed as biochemical. The settings on record: for hCA II Inhibition type: Lineweaver-Burk; for Selectivity index AAZ/hCA II: ratio of KI of acetazolamide to KI of compound; for Selectivity index hCAI/hCA II: ratio of KI values.

Sequence of AChE from Electrophorus electricus (O42275 24-633): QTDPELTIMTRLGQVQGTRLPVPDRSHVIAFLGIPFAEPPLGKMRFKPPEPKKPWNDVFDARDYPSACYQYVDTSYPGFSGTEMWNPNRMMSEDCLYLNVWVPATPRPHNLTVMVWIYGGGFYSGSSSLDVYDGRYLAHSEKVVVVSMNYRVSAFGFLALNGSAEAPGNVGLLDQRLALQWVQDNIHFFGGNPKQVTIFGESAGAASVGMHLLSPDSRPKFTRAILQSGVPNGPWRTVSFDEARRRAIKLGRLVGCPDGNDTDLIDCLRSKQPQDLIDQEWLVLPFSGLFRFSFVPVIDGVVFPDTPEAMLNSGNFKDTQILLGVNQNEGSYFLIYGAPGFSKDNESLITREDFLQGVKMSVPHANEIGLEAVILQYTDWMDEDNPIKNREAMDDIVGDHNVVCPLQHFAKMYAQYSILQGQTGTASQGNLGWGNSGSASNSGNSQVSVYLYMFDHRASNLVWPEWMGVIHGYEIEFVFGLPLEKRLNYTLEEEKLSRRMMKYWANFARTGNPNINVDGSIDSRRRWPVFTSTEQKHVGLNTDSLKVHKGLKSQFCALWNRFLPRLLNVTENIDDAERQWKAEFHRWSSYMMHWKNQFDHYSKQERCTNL
Sequence of hCA I (P00915 whole entry): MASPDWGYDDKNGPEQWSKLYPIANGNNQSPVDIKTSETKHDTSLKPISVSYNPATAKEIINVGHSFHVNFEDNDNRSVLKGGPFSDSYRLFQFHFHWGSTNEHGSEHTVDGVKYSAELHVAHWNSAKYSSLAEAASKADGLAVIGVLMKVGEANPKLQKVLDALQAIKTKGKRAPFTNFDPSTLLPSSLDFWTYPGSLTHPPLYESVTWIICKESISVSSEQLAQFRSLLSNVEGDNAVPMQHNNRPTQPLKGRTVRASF

For `CCSc1nnc(-c2ccc(S(=O)(=O)NC(=O)c3ccccc3)cc2)o1` [6a, N-([4-(5-(ethylthio)-1,3,4-oxadiazol-2-yl)phenyl]sulfonyl)benzamide], in data set [1], the “cell viability at low concentrations” value is recorded as “high cell viability” and the “toxicity at effective concentrations on target enzymes” value (shortened to “toxicity at effective concentrations”) was “non-toxic”. In data set [2], the affinity corresponds to a Ki of 52.5 ± 1.27 nM, the “AChE Inhibition type” value is listed as “Competitive” and the “Selectivity index THA/AChE” value is listed as 2.96. Moreover, in data set [3], the Ki – broadly, a dissociation constant, usually derived from enzyme kinetics or from competition with a known ligand – is 21.6 ± 0.25 nM; the “hCA I Inhibition type” value is reported as “Competitive”; the “Selectivity index AAZ/hCA I” value stood at 20.29; the “Selectivity index hCA II/hCA I” value was 0.43. Also, in data set [4], the Ki worked out at 9.33 ± 0.13 nM; the “hCA II Inhibition type” value was “Competitive”; the “Selectivity index AAZ/hCA II” value was 10.5 and 10.53; the “Selectivity index hCAI/hCA II” value came out at 2.32.
On to `CCSc1nnc(-c2ccc(S(=O)(=O)NC(=O)c3ccc(C)cc3)cc2)o1` [6b, N-([4-(5-(ethylthio)-1,3,4-oxadiazol-2-yl)phenyl]sulfonyl)-4-methylbenzamide], for which, in data set [2], the Ki came out at 47 ± 1.71 nM, the “AChE Inhibition type” value is given as “Competitive” and the “Selectivity index THA/AChE” value was determined as 3.30. In data set [3], affinity was put at a Ki of 59.62 ± 0.53 nM, the “hCA I Inhibition type” value is listed as “Noncompetitive”, the “Selectivity index AAZ/hCA I” value is given as 7.37 and the “Selectivity index hCA II/hCA I” value is listed as 0.30. In addition, in data set [4], the Ki was 17.8 ± 0.23 nM, the “hCA II Inhibition type” value is on record as “Competitive”, the “Selectivity index AAZ/hCA II” value turned out to be 5.51 and the “Selectivity index hCAI/hCA II” value stood at 3.34.
Turning to `CCCC(=O)NS(=O)(=O)c1ccc(-c2nnc(SCC)o2)cc1` [6d, N-([4-(5-(ethylthio)-1,3,4-oxadiazol-2-yl)phenyl]sulfonyl)butyramide], in data set [1], the “cell viability at low concentrations” value is reported as “high cell viability” and the “toxicity at effective concentrations” value is recorded as “non-toxic”. Besides, in data set [2], the Ki was 48.4 ± 1.75 nM, the “AChE Inhibition type” value was “Competitive” and the “Selectivity index THA/AChE” value is reported as 3.21. In data set [3], the Ki came to 18.7 ± 0.21 nM; the “hCA I Inhibition type” value is “Competitive”; the “Selectivity index AAZ/hCA I” value is 23.5 and 23.54; the “Selectivity index hCA II/hCA I” value came out at 1.24. In addition, in data set [4], the affinity, expressed as Ki, was 23.2 ± 0.26 nM; the “hCA II Inhibition type” value is recorded as “Competitive”; the “Selectivity index AAZ/hCA II” value stood at 4.24; the “Selectivity index hCAI/hCA II” value was determined as 0.81.
As to `CCCCC(=O)NS(=O)(=O)c1ccc(-c2nnc(SCC)o2)cc1` [6e, N-([4-(5-(ethylthio)-1,3,4-oxadiazol-2-yl)phenyl]sulfonyl)pentanamide], in data set [2], the Ki came to 41.2 ± 0.95 nM, the “AChE Inhibition type” value is listed as “Noncompetitive” and the “Selectivity index THA/AChE” value turned out to be 3.77. In data set [3], the Ki was 47.15 ± 0.36 nM, the “hCA I Inhibition type” value is “Competitive”, the “Selectivity index AAZ/hCA I” value is 9.31 and the “Selectivity index hCA II/hCA I” value is listed as 0.79. In addition, in data set [4], the Ki turned out to be 37.24 ± 0.14 nM, the “hCA II Inhibition type” value was “Competitive”, the “Selectivity index AAZ/hCA II” value was found to be 2.64 and the “Selectivity index hCAI/hCA II” value is given as 1.27.
For `CCCCCC(=O)NS(=O)(=O)c1ccc(-c2nnc(SCC)o2)cc1` [6f, N-([4-(5-(ethylthio)-1,3,4-oxadiazol-2-yl)phenyl]sulfonyl)hexanamide], in data set [2], affinity was put at a Ki of 39.3 ± 1.13 nM, the “AChE Inhibition type” value is given as “Competitive” and the “Selectivity index THA/AChE” value amounted to 3.95. Further, in data set [3], the Ki came to 33.1 ± 0.47 nM, the “hCA I Inhibition type” value is listed as “Competitive”, the “Selectivity index AAZ/hCA I” value is listed as 13.27 and the “Selectivity index hCA II/hCA I” value is given as 0.88. In data set [4], the affinity corresponds to a Ki of 29.19 ± 0.1 nM, the “hCA II Inhibition type” value was “Competitive”, the “Selectivity index AAZ/hCA II” value was determined as 3.37 and the “Selectivity index hCAI/hCA II” value came to 1.13.
For the compound `CCCCCCC(=O)NS(=O)(=O)c1ccc(-c2nnc(SCC)o2)cc1` [6g, N-([4-(5-(ethylthio)-1,3,4-oxadiazol-2-yl)phenyl]sulfonyl)heptanamide], in data set [2], the Ki stood at 49.7 ± 2.13 nM, the “AChE Inhibition type” value is “Competitive” and the “Selectivity index THA/AChE” value is listed as 3.12. Moreover, in data set [3], the Ki turned out to be 23 ± 0.29 nM, the “hCA I Inhibition type” value was “Competitive”, the “Selectivity index AAZ/hCA I” value worked out at 19.09 and the “Selectivity index hCA II/hCA I” value came to 1.33. In data set [4], the Ki turned out to be 30.71 ± 0.09 nM, the “hCA II Inhibition type” value is on record as “Competitive”, the “Selectivity index AAZ/hCA II” value is on record as 3.20 and the “Selectivity index hCAI/hCA II” value amounted to 0.75.
Take `CCCCCCCC(=O)NS(=O)(=O)c1ccc(-c2nnc(SCC)o2)cc1` [6h, N-([4-(5-(ethylthio)-1,3,4-oxadiazol-2-yl)phenyl]sulfonyl)octanamide]: in data set [1], the “cell viability at low concentrations” value was “high cell viability” and the “toxicity at effective concentrations” value was “non-toxic”. Besides, in data set [2], the affinity, expressed as Ki, was 23.1 ± 0.77 nM; the “AChE Inhibition type” value is given as “Competitive”; the “Selectivity index THA/AChE” value was 6.7 and 6.72. In data set [3], the Ki came to 34.6 ± 0.51 nM, the “hCA I Inhibition type” value is “Competitive”, the “Selectivity index AAZ/hCA I” value was determined as 12.69 and the “Selectivity index hCA II/hCA I” value is listed as 3.49. In data set [4], the affinity, expressed as Ki, was 120.8 ± 0.34 nM; the “hCA II Inhibition type” value is reported as “Noncompetitive”; the “Selectivity index AAZ/hCA II” value came out at 0.81; the “Selectivity index hCAI/hCA II” value is 0.29.
In the case of `CCCCCCCCC(=O)NS(=O)(=O)c1ccc(-c2nnc(SCC)o2)cc1` [6i, N-([4-(5-(ethylthio)-1,3,4-oxadiazol-2-yl)phenyl]sulfonyl)nonanamide], in data set [2], the affinity, expressed as Ki, was 47.6 ± 1.75 nM; the “AChE Inhibition type” value is “Competitive”; the “Selectivity index THA/AChE” value was 3.27. For the same compound, in data set [3], the Ki came to 38.4 ± 0.46 nM, the “hCA I Inhibition type” value is recorded as “Competitive”, the “Selectivity index AAZ/hCA I” value is on record as 11.44 and the “Selectivity index hCA II/hCA I” value is on record as 2.93. Also, in data set [4], the Ki came to 112.7 ± 0.36 nM, the “hCA II Inhibition type” value is reported as “Competitive”, the “Selectivity index AAZ/hCA II” value is on record as 0.87 and the “Selectivity index hCAI/hCA II” value is 0.34.
`CCCCCCCCCCCC(=O)NS(=O)(=O)c1ccc(-c2nnc(SCC)o2)cc1` [6j, N-([4-(5-(ethylthio)-1,3,4-oxadiazol-2-yl)phenyl]sulfonyl)dodecanamide]: in data set [2], the affinity, expressed as Ki, was 46.7 ± 1.64 nM; the “AChE Inhibition type” value is “Competitive”; the “Selectivity index THA/AChE” value was determined as 3.33. Further, in data set [3], affinity was put at a Ki of 31 ± 0.41 nM, the “hCA I Inhibition type” value is “Competitive”, the “Selectivity index AAZ/hCA I” value is listed as 14.16 and the “Selectivity index hCA II/hCA I” value was 0.95. For the same compound, in data set [4], the affinity, expressed as Ki, was 29.4 ± 0.13 nM; the “hCA II Inhibition type” value was “Competitive”; the “Selectivity index AAZ/hCA II” value is given as 3.34; the “Selectivity index hCAI/hCA II” value is recorded as 1.05.
